From US10272087B2, “Pteridines as FGFR inhibitors” (ASTEX THERAPEUTICS LIMITED, priority 2012, dated 2019)

Experiments:
KDR (h) (VEGFR2) = KDR (h) (VEGFR2) (Homo sapiens (Human), UniProt P35968); experiment: KDR (VEGFR2) (enzymatic assay), TR-FRET; type: biochemical; settings: 3 μM ATP; read-out: VEGFR KDR pIC50 (converted)
[1] = test system: Ba/F3-FGFR1-transfected cells; experiment: cells; settings: read-out: BAF3-FGFR1 (MIN IL3 pIC50) (converted)
[2] = test system: Ba/F3-FGFR4-transfected cells; experiment: cells; settings: read-out: BAF3-FGFR4 (pIC50) (converted)
[3] = test system: Ba/F3-KDR-transfected cells; experiment: cells; settings: read-out: BAF3-KDR (MIN IL3 pIC50) (converted)

Chain of KDR (h) (VEGFR2) (P35968 20-1356): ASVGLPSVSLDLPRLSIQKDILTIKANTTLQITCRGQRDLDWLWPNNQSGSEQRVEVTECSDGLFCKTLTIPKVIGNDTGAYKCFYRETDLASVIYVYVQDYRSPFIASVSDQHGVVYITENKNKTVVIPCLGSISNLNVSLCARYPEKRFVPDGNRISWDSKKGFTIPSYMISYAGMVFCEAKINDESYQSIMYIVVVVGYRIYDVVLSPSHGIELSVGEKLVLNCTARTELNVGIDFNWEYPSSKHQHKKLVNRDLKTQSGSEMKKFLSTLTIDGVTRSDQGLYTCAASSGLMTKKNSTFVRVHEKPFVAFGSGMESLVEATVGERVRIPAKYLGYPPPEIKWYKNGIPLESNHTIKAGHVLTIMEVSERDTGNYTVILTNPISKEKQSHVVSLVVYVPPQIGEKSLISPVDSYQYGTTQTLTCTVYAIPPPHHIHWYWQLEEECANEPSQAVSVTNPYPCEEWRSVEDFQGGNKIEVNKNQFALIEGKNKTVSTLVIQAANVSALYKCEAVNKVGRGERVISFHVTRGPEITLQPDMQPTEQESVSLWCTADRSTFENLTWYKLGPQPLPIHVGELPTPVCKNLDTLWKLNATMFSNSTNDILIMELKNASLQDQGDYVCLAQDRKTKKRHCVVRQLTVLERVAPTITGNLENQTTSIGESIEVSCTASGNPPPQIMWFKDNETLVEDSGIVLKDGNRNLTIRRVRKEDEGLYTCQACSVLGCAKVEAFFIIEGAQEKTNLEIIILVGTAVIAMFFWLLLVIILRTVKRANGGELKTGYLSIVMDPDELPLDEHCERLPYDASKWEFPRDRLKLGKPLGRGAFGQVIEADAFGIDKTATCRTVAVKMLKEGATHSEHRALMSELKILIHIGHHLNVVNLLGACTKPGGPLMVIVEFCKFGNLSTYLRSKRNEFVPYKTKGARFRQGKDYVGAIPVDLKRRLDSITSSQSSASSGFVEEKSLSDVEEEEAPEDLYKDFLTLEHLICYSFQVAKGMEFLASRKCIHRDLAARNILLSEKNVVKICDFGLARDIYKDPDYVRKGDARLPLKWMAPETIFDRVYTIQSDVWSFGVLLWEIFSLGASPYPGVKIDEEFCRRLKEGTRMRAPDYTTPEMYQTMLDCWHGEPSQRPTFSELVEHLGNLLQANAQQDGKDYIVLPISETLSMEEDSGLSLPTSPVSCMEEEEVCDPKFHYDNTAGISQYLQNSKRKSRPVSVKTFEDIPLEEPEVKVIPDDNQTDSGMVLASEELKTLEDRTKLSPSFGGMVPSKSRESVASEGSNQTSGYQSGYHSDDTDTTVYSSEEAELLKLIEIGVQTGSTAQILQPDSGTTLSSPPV

| IC50 (KDR (h) (VEGFR2)) [nM] | IC50 [1] [nM] | IC50 [2] [nM] | Structure (SMILES) | IC50 [3] [nM] |
| --- | --- | --- | --- | --- |
| 100 |  |  | COc1cc(OC)c(F)c(N(Cc2nccn2S(=O)(=O)N(C)C)c2ncc3ncc(-c4cnn(C)c4)nc3n2)c1F [Compound 1] |  |
| 25.1 | 6.31 | 25.1 | COc1cc(OC)c(F)c(N(Cc2ncc[nH]2)c2ncc3ncc(-c4cnn(C)c4)nc3n2)c1F [Compound 2] |  |
|  |  |  | COc1cc(OC)cc(N(CCO)c2ncc3ncc(-c4ccccc4)nc3n2)c1 [Compound 4] | > 10000 |
| 1000 |  |  | COc1cc(OC)c(F)c(N(C[C@H]2CCC(=O)N2)c2ncc3ncc(-c4cnn(C)c4)nc3n2)c1 [Compound 10] |  |
| > 1000 |  |  | COc1cc(OC)c(F)c(N(C[C@@H]2CCC(=O)N2)c2ncc3ncc(-c4cnn(C)c4)nc3n2)c1 [Compound 11] |  |
| 251 |  |  | COc1cc(OC)c(F)c(N(Cc2ncc[nH]2)c2ncc3ncc(-c4cnn(C)c4)nc3n2)c1 [Compound 13] |  |

| Structure (SMILES) | IC50 (KDR (h) (VEGFR2)) [nM] | IC50 [1] [nM] | IC50 [2] [nM] | IC50 [3] [nM] |
| --- | --- | --- | --- | --- |
| COc1cc(OC)cc(N(CCO)c2ncc3ncc(-c4cnn(C)c4)nc3n2)c1 [Compound 3] | > 1000 |  |  | > 10000 |
| COc1cc(OC)cc(N(CC2CC2)c2ncc3ncc(-c4ccccc4)nc3n2)c1 [Compound 7] | > 1000 |  |  | > 10000 |
| COc1cc(OC)c(F)c(N(C[C@@H]2CCC(=O)N2)c2ncc3ncc(-c4cnn(C)c4)nc3n2)c1F [Compound 8] | 794 |  |  | > 10000 |
| CNCCN(c1ncc2ncc(-c3cnn(C)c3)nc2n1)c1c(F)c(OC)cc(OC)c1F [Compound 9] | 398 |  |  | 2510 |
